According to publication PMC10003107, “Selectivity of Hydroxamate- and Difluoromethyloxadiazole-Based Inhibitors of Histone Deacetylase 6 In Vitro and in Cells” (International Journal of Molecular Sciences, 2023):
Read-outs that look alike come from different tables or passages of the source.

What was measured:
HDAC10 = biological target: T1, HDAC10 (Homo sapiens, UniProt Q969S8); assay: In vitro deacetylation assay, HDAC10 (fluorescein-labeled N8-acetylspermidine, RP-HPLC); assay type: biochemical
T1 construct: HDAC10 1 – 667 Open Biosystems; Strep-FLAG-HALO (N); made in house; host or cells: HEK293/T17
T1 sequence (Q969S8 1-667): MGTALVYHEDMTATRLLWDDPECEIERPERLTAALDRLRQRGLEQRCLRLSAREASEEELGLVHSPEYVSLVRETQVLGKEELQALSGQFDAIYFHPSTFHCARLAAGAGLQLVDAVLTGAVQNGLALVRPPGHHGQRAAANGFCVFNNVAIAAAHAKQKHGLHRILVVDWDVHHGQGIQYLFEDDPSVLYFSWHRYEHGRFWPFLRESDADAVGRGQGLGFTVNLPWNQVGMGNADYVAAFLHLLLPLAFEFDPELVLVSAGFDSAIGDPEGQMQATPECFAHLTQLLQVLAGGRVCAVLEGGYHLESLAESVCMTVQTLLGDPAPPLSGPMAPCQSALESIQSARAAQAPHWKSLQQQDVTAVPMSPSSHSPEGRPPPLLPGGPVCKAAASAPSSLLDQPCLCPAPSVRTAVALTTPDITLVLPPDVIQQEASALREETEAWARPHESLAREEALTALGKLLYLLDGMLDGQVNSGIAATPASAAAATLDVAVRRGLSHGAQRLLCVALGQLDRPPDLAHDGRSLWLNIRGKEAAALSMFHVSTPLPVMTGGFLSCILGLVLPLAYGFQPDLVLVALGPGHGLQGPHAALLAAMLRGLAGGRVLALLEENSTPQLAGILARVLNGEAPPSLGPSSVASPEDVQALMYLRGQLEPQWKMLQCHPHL

tubulin acetylation = assay: Tubulin acetylation in RPMI-8226 cells by quantitative Western blotting; assay type: cell-based
histone H3 acetylation = assay: Histone H3 (K9/K14) acetylation in RPMI-8226 cells by Western blotting; assay type: cell-based; details: 6 h, Western blot
MTT viability assay = assay type: cell-based; details: human, RPMI-8226 lymphoblasts, RPMI-8226 cells, read-out: EC50 cytotoxicity (MTT viability)
Method: (§1) RPMI-8226 lymphoblasts (ATTC #CCL-155) were used to assess the cytotoxicity of tested compounds. […] Dilution series of tested inhibitors were prepared as 10x stock solutions in PBS and 10 μL was added to cells and incubated under a 5% CO2 atmosphere at 37 °C, for 2 days. Following incubation, 10 μL of MTT reagent (3-(4,5-dimethylthiazol-2-yl)-2,5-diphenyltetrazolium bromide, 5 mg/mL in PBS, Sigma Aldrich) was added to each well and incubated for 90 min, 37 °C, 5% CO2. […]

RPMI-8226 lymphoblasts = assay: MTT viability assay; assay type: cell-based; details: RPMI-8226 cells, 48 h; for EC50: read-out: EC50 cytotoxicity (MTT viability)
Method: as §1

HDAC1 [1] = biological target: T2, HDAC1 (Homo sapiens, UniProt Q13547); assay: In vitro deacetylation assay, HDAC1 (GAK substrate); assay type: biochemical; details: for IC50: purified human HDAC1, GAK substrate 10 µM
T2 construct: HDAC1 1-482 Addgene; Strep-FLAG-HALO (N); made in house; host or cells: HEK293/T17
T2 sequence (Q13547 whole entry): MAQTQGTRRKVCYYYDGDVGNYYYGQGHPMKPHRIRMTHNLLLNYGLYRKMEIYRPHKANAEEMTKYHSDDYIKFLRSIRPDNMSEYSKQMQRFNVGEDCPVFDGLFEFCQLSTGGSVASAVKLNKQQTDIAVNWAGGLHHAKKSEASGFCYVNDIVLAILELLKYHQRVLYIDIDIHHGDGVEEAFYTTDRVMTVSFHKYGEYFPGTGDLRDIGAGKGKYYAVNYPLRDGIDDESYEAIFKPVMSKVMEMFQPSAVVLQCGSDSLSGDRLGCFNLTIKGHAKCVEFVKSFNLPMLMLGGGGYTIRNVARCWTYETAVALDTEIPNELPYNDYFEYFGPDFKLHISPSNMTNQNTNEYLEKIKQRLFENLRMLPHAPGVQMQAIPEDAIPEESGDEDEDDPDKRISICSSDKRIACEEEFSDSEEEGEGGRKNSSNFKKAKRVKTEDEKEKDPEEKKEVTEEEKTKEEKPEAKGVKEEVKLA

HDAC1 [2] = biological target: T2, HDAC1; assay: In vitro deacetylation assay, HDAC1 (RHKK substrate); assay type: biochemical; details: for IC50: purified human HDAC1, RHK[AcK]-AMC (RHKK) substrate
HDAC1-nanoLuc = HDAC1-nanoLuc (Homo sapiens, UniProt Q13547); assay: nanoBRET target engagement assay, HDAC1; assay type: cell-based; details: HEK293T/17 cells stably expressing HDAC1-nanoLuc, 2 h
HDAC1-nanoLuc, sequence (Q13547 whole entry): as above

HDAC6 = biological target: T3, HDAC6 (Homo sapiens, UniProt Q9UBN7); assay: In vitro deacetylation assay, HDAC6 (GAK substrate); assay type: biochemical; details: purified human HDAC6, Ac-GAK-Ac-AMC (GAK) substrate 10 µM
T3 construct: HDAC6 2-1215 Open Biosystems; Strep-FLAG-HALO (N); made in house; host or cells: HEK293/T17
T3 sequence (Q9UBN7 2-1215): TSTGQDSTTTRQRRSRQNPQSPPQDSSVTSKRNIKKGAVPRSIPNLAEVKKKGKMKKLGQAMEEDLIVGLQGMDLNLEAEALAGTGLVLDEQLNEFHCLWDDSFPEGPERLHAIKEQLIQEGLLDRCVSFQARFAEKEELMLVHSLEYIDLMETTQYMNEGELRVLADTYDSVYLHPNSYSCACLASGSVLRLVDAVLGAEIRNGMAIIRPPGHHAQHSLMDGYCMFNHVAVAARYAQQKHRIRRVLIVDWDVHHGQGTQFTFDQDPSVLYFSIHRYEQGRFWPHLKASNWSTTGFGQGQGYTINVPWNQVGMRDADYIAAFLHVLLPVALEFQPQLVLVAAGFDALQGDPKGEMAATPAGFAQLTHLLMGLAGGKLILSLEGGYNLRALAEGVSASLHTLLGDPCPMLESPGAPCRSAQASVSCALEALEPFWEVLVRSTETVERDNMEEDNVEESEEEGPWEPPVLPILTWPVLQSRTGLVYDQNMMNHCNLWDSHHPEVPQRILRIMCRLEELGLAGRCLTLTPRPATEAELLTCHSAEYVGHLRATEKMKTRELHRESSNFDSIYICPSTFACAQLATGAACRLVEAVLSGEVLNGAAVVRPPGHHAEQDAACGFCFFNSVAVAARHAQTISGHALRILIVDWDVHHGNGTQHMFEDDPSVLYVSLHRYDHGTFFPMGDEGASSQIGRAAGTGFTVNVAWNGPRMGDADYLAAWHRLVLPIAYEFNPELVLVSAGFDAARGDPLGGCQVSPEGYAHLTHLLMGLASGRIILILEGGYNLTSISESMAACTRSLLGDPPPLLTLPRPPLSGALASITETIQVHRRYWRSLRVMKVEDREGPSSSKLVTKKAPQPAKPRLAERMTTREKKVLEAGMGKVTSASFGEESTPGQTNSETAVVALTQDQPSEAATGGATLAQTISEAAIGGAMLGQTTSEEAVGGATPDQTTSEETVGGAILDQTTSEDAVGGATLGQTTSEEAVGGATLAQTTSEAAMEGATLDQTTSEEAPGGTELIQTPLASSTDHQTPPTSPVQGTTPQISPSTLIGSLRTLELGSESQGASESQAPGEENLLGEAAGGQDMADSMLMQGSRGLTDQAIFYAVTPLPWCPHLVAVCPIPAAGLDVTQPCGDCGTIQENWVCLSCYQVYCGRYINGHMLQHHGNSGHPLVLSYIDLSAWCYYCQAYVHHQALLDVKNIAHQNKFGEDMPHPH

[3] = Homo sapiens, RPMI-8226, 6 h, read-out: IC50 tubulin deacetylation (relative tubulin acetylation), RPMI-8226 cells, 6 h, Western blot; called EC50 in text

Row | Compound | IC50 (tubulin acetylation; [3]) [nM] | effect on histone H3 (K9/K14) acetylation, class I HDAC inhibition (histone H3 acetylation) | EC50 at 48 h (MTT viability assay) [nM] | EC50 (RPMI-8226 lymphoblasts) [nM] | IC50 (HDAC1 [1]) [nM] | IC50 (HDAC1 [2]) [nM] | other results
1 | O=C(CCCCCCNC(=O)c1cnc(N(c2ccccc2)c2ccccc2)nc1)NO [ACY-1215, rocilinostat] | 619 | the most potent class I HDAC inhibitors | 2890 | 2900 | – | – | IC50 (HDAC10): 18.2 nM
2 | CCCCN(Cc1ccc(C(=O)NO)cc1)C(=O)Nc1ccccc1 [Next A, Nexturastat A] | 249 | – | 2810 | 2800 | – | – | –
3 | CC(/C=C/C(=O)NO)=C\[C@@H](C)C(=O)c1ccc(N(C)C)cc1 [TSA, Trichostatin A] | – | the most potent class I HDAC inhibitors | 237 | 240 | – | – | IC50 (tubulin acetylation; Homo sapiens, RPMI-8226, 6 h, read-out: IC50 tubulin deacetylation (relative tubulin acetylation)): 136 nM; IC50 (tubulin acetylation; Homo sapiens, RPMI-8226, 6 h, read-out: potency to inhibit tubulin deacetylation): 136 nM; IC50 (tubulin acetylation; read-out: IC50 tubulin deacetylation (relative tubulin acetylation)): 140 nM
4 | CN1CCc2c(c3ccccc3n2Cc2ccc(C(=O)NO)cc2)C1 [Tub A, Tubastatin A] | – | – | 21600 | – | – | – | IC50 (tubulin acetylation; Homo sapiens, RPMI-8226, 6 h; read-out: IC50 tubulin deacetylation (relative tubulin acetylation)): 985 nM; effect on cell viability (RPMI-8226 lymphoblasts; MTT): less pronounced effects on cell viability at high inhibitor concentrations
5 | O=C(CCCCCCC(=O)Nc1ccc([C@H]2O[C@@H](CSc3nc(-c4ccccc4)c(-c4ccccc4)o3)C[C@@H](c3ccc(CO)cc3)O2)cc1)NO [Tubacin] | 1710 | – | 6510 | 6500 | 102 | 15100 | EC50 (HDAC1 [1]; Figure 2C, in vitro data (GAK) in μM): 0.1 µM; EC50 (HDAC1-nanoLuc): 13200 nM; IC50 (tubulin acetylation; read-out: IC50 tubulin deacetylation (relative tubulin acetylation); RPMI-8226 cells, 6 h, Western blot; called EC50 in text): 1700 nM
6 | CS(=O)(=O)N(Cc1ccc(C(=O)NO)cn1)c1cccc(Cl)c1 [compound 6, 6-((N-(3-Chlorophenyl)methylsulfonamido)methyl)-N-hydroxynicotinamide] | – | – | 998 | – | 49.2 | 281 | IC50 (HDAC6): 0.35 nM; SI (HD6/HD1) GAK, in vitro (HDAC1 [1]; ratio of IC50 HDAC1 (GAK) divided by IC50 HDAC6): 141; SI (HD6/HD1) RHKK (HDAC1 [2]; ratio of IC50 HDAC1 (RHKK) divided by IC50 HDAC6): 803; IC50 (HDAC10; purified human HDAC10, read-out: IC50 HDAC10): 68.3 nM; SI (HD6/HD10) (HDAC10; ratio of IC50 HDAC10 divided by IC50 HDAC6): 195
